Laboratory results published in patent US20060063789A1, “Aminobenzamide derivatives as glycogen synthase kinase 3 beta inhibitors” (priority 2001, published 2006).

Legend:
GSK3β = GSK3β (Homo sapiens, UniProt P49841); experiment: GSK3beta assay (SPA, biotinylated phosphorylated CREB peptide, ATP-P33); assay type: biochemical; conditions: −log IC50 (M); 19 nM GSK3β, 5 μM biotinylated phosphorylated CREB peptide, 1 μM ATP, 25° C., one hour
Protocol: GSK3beta assays were performed at 25° C. in a 100 μl reaction volume of 25 mM Tris (pH 7.4) containing 10 mM MgCl2, 1 mM DTT, 0.1 mg/ml BSA, 5% glycerol and containing 19 nM GSK3β, 5 μM biotinylated phosphorylated CREB peptide, 1 μM ATP, 2 nM ATP-P^33 and a suitable amount of a test compound of formula (I) or (I′). After one hour, the reaction was terminated by adding 70 μl of Stop mix (1 mM ATP, 18 mg/ml streptavidin coated PVT SPA bead pH 11.0). The beads to which the phosphorylated CREB peptide is attached were allowed to settle for 30 minutes and the radioactivity of the beads was counted in a microtiterplate scintillation counter and compared with the results obtained in a control experiment (without the presence of a test compound) in order to determine the percentage of GSK3β inhibition. The IC50 value, i.e. the concentration (M) of the test compound at which 50 % of GSK3β is inhibited, was calculated from the dose response curve obtained by performing the above-described GSK3β assay in the presence of different amounts of the test compound.
Table 4 lists pIC50 values (−log IC50 (M)) obtained in the above-described test for the present compounds.

Chain of GSK3β (P49841 whole entry, species assumed): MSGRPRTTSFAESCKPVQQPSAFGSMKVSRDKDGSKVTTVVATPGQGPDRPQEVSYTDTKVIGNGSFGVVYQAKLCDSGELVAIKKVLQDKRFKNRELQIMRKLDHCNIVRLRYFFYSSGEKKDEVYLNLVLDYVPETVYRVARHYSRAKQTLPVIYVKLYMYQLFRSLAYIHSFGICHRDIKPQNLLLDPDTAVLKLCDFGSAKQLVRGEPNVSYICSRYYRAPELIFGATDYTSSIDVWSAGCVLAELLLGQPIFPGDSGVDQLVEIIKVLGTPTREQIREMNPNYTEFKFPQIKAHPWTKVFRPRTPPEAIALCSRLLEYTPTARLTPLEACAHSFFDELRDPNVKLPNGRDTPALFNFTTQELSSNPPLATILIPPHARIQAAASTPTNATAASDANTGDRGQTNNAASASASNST

IC50 (GSK3β) [M]	melting point [°C]	Compound
1.82e-08	260 to 261	N#Cc1cnc(Nc2cccc(C(N)=O)c2)nc1OCc1ccccc1 [Compound 9, 3-[[5-cyano-4-(phenylmethoxy)-2-pyrimidinyl]amino]-benzamide]
6.46e-08	–	NC(=O)c1ccc(Nc2ncc(Br)c(OCc3ccccc3)n2)cc1 [Compound 22, 4-[[5-bromo-4-(phenylmethoxy)-2-pyrimidinyl]amino]-benzamide]
1.41e-06	–	NC(=O)c1cccc(Nc2nccc(OCc3ccccc3)n2)c1 [Compound 17]
5.25e-08	216 to 217	NC(=O)c1cccc(Nc2ncc(Br)c(OCc3ccccc3)n2)c1 [Compound 4]
2.19e-08	–	N#Cc1cnc(Nc2ccc(C(N)=O)cc2)nc1OCc1ccccc1 [Compound 23, 4-[[5-cyano-4-(phenylmethoxy)-2-pyrimidinyl]amino]-benzamide]
1.82e-07	–	NC(=O)c1cccc(Nc2ncc([N+](=O)[O-])c(NCc3ccccc3)n2)c1 [Compound 1]
